Measurements: patent US10952988B2, “Methods for controlling the spread of dirofilariosis” (priority 2015, dated 2021)

Tested on: Dirofilaria immitis (JYD-34) resistant strain
Settings: in vivo

Substance: milbemycin oxime
- average worms per dog: 7.2 worms per dog
- efficacy (adult worm reduction versus untreated Group 1): 70.7%
